Tests used:
[1] = tested on: Bovine brain microvessel endothelial cells; assay: Ability to cross endothelial monolayers (permeability index); assay type: in vitro ADME; details: permeability index from PSe, endothelial monolayer, compared with ^3H-water and ^14C-sucrose, first 10 minutes, 37° C.
Protocol: The model consists of a cultured monolayer of bovine brain endothelial cells, which form tight intercellular junctions. […] The rate of transit is compared with ^3H2O (a highly permeable tracer) and ^14C-sucrose (a non-permeable tracer).
Bovine brain microvessel endothelial cells were isolated using a modification of the Audus-Borchardt method (K. L. Audus et al., Ann. New York Acad. Sci., 1988; 9-18). […]
This system was placed into a 37° C., 5% CO2 incubator which contains an orbiting tissue culture plate shaker for agitation and 10 μL samples, from both inside (donor) and outside (acceptor) compartments, were taken simultaneously from a set of 4 Anocell inserts. These samples were counted first in a Gamma counter then, after 72 hours, in a scintillation counter with dual channel capabilities. The fraction of radioactivity transported from the donor to the acceptor wells at each time point over the first 10 minutes of the study was calculated. The average percent of radioactivity transported was plotted vs. time and the slope was estimated by linear regression analysis. […] The permeability index (Pi) is calculated using the PSe for each agent as follows: [formula]

[2] = Biodistribution of ^99mTc-complexes in normal (normoxic) Sprague-Dawley rats; assay type: in vivo; details: MEAN n=4
Protocol: Twelve Sprague-Dawley rats were anesthetized with Nembutal (50 mg/kg) and injected with 0.1 mL (20 μCi) of radioactivity via the jugular vein. At 1 minute, 5 minutes and 60 minutes after administration of the radiotracers (n=4 for all time points), the animals were sacrificed by exsanguination, and the target tissues removed, weighed and assayed for radioactivity. The rats were allowed to respire room air throughout the course of the study.

[3] = tested on: hypoxic ischemic border zone; assay: Rabbit focal myocardial ischemia model (LAD occlusion), double-label autoradiography; assay type: in vivo; details: permanent LAD coronary artery ligation, intravenous tracer, heart sections, listed as 99mTc complex of the ligand described in Example 1
Protocol: A model of focal myocardial ischemia in the rabbit was developed, using permanent ligation of the left anterior descending (LAD) coronary artery. The model consisted of two studies. In the first, relative regional myocardial blood flow (MBF) and relative regional myocardial rate of glucose metabolism (MMRgl) were determined by autoradiography using a double-label study with the flow tracer ^99mTcCl(CDO)3MeB (R. K. Narra et al., J. Nucl. Med., 1989; 30:1830-1837) and ^14C-deoxy-glucose for MMRgl (L. Sokoloff et al., J. Neurochem., 1977, 28, 897-916). ^14C-deoxyglucose and the ^99mTc-hypoxia-localizing tracer were administered to a second group of rabbits with LAD coronary artery occlusion.
After the surgical preparation and 20 minutes of LAD occlusion, ^14C-deoxyglucose (130-150 μCi) was injected as an intravenous bolus, and timed arterial blood samples were obtained. Twenty-five minutes later, ^99mTcCl(CDO)3MeB (10-12 mCi) was administered intravenously. Five minutes later, the rabbits were sacrificed by intravenous injection of Nembutal and potassium chloride. The heart was excised, frozen in liquid Freon-22, and 20 μm coronal sections obtained with a Microtome. Autoradiographs were obtained on all sections. For the first exposure (˜14 hours duration) of Kodak XAR film, extra heavy duty aluminum foil was interposed between the tissue and film to block completely the radiation emanating from ^14C to obtain the MBF information derived from ^99mTcCl(CDO)3MeB alone. After three days (to allow for decay of ^99mTc); a second autoradiograph was obtained without foil. The second exposure lasted 6-8 days, and,provided an image of the regional distribution of ^14C-deoxyglucose.
In a separate experiment using the rabbit LAD occlusion model and the double-label autoradiography procedures described above, the performance of the ^99mTc complex of the ligand described in Example 1 was compared to that of ^14C-misonidazole.

[4] = tested on: hypoxic border zone; assay: Rat focal cerebral ischemia model (MCA occlusion), double-label autoradiography; assay type: in vivo, spontaneously hypertensive rats (SHR); details: SHR, injected 1 hour or five days after MCA occlusion, both time points
Protocol: A model of focal cerebral ischemia involving tandem occlusion of the internal carotid artery and the ipsilateral middle cerebral artery (MCA) in spontaneously hypertensive rats (SHR) was characterized using the double-label autoradiography procedure described in Example 10. […] Following surgery, which was performed under Halothane anesthesia, the rats were allowed to recover and one hour after the MCA occlusion, ^14C-deoxyglucose was injected as an IV bolus and timed arterial samples were obtained. Twenty-five minutes after ^14C-deoxyglucose injection, ^99mTcCl(DMG)32MP was injected as an IV bolus and the rat was sacrificed 15 seconds later. The brain was rapidly removed and sections and autoradiograms were obtained as described in Example 10. As found in Example 10 for the rabbit LAD occlusion model, the ischemic territory was bordered by a rim of tissue in which glycolysis was elevated. […] Nevertheless, it was clear that the ischemic region is surrounded by a border zone of increased glycolysis. In a second series of experiments, the ^99mTc complex of the ligand described in Example 1 and ^14C-deoxyglucose were co-injected 1 hour or five days after MCA occlusion.

[5] = tested on: Mitochondria; assay: Studies in isolated mitochondria; design: species or system male Sprague Dawley rats; details: 37° C. for 60 minutes, means ±S.E.M.
Protocol: Mitochondria were prepared from hearts of male Sprague Dawley rats (200 g) using the isolation procedure of Fuller et al., (E. O. Fuller, D. I. Golderg, J. W. Starnes, M. Sacks, and M. J. Delavoria-Papadopoulos, Mol. Cell. Cardiol., 17:71, 1985). The heart was excised from anesthetized rats and trimmed free of the atria and great vessels. The ventricles were minced in ice-cold isolation medium (0.225 M mannitol, 75 mM sucrose, 1.0 mM EGTA and 10 mM MOPS, pH 7.4), briefly exposed to the proteolytic enzyme preparation, Nagase (Enzyme Development Corp., New York, N.Y.), and homogenized with a polytron. The mitochondria were separated from the remainder of the broken cells using density gradient centrifugation.
Three nitroimidazole compounds were incubated at 37° C. for 60 minutes in isolated mitochodria. Hypoxia and anoxia were induced as outlined in Example 12.
Values are given in percent of total radioactivity within an aliquot and represent means ±S.E.M. Compounds were tested using the same preparation of mitochondria.

[6] = 1 Min. after jugular vein injection
[7] = 5 Min. after jugular vein injection
[8] = 60 Min. after jugular vein injection

**Q.** Which Pi [1] does the source give for “[^99mTc]Oxo[[3,3,9,9-tetramethyl-1-(2-nitro-1H-imidazo-1-yl)-4,8-diazaundecane-2,10-dione dioximato]-(3-)-N,N′,N″,N′″]technetium(V) [^99mTc complex from ligand in Ex. 1]” here?
**A.** 63.2

**Q.** What about the “Percent ID/g Bladder” value [2, 6] of the same substance?
**A.** 0.15 Percent ID/g

**Q.** And the “Percent ID/g Blood” value [2, 6]?
**A.** 0.47 Percent ID/g

**Q.** And the “Percent ID/g Bone” value [2, 6]?
**A.** 0.37 Percent ID/g

**Q.** And the “Percent ID/g Brain” value [2, 6]?
**A.** 0.30 Percent ID/g

**Q.** What about the “Percent ID/g Heart” value [2, 6] of the same substance?
**A.** 1.32 Percent ID/g

**Q.** What about the “Percent ID/g Kidneys” value [2, 6] of the same substance?
**A.** 2.59 Percent ID/g

**Q.** And the “Percent ID/g Liver” value [2, 6]?
**A.** 2.06 Percent ID/g

**Q.** What about the “Percent ID/g Lower Intestine” value [2, 6] of the same substance?
**A.** 0.50 Percent ID/g

**Q.** What about the “Percent ID/g Lungs” value [2, 6] of the same substance?
**A.** 0.71 Percent ID/g

**Q.** And the “Percent ID/g Muscle” value [2, 6]?
**A.** 0.25 Percent ID/g

**Q.** And the “Percent ID/g Spleen” value [2, 6]?
**A.** 0.84 Percent ID/g

**Q.** What about the “Percent ID/g Stomach” value [2, 6] of the same substance?
**A.** 0.67 Percent ID/g

**Q.** What about the “Percent ID/g Thymus” value [2, 6] of the same substance?
**A.** 0.55 Percent ID/g

**Q.** And the “Percent ID/g Thyroid” value [2, 6]?
**A.** 0.65 Percent ID/g

**Q.** What about the “Percent ID/g Upper Intestine” value [2, 6] of the same substance?
**A.** 1.13 Percent ID/g

**Q.** And the “Percent ID/g Bladder” value [2, 7]?
**A.** 0.68 Percent ID/g

**Q.** What about the “Percent ID/g Blood” value [2, 7] of the same substance?
**A.** 0.36 Percent ID/g

**Q.** What about the “Percent ID/g Bone” value [2, 7] of the same substance?
**A.** 0.23 Percent ID/g

**Q.** And the “Percent ID/g Brain” value [2, 7]?
**A.** 0.11 Percent ID/g

**Q.** What about the “Percent ID/g Heart” value [2, 7] of the same substance?
**A.** 0.34 Percent ID/g

**Q.** And the “Percent ID/g Kidneys” value [2, 7]?
**A.** 1.15 Percent ID/g

**Q.** And the “Percent ID/g Liver” value [2, 7]?
**A.** 3.63 Percent ID/g

**Q.** What about the “Percent ID/g Lower Intestine” value [2, 7] of the same substance?
**A.** 0.40 Percent ID/g

**Q.** What about the “Percent ID/g Lungs” value [2, 7] of the same substance?
**A.** 0.39 Percent ID/g

**Q.** What about the “Percent ID/g Muscle” value [2, 7] of the same substance?
**A.** 0.14 Percent ID/g

**Q.** And the “Percent ID/g Spleen” value [2, 7]?
**A.** 0.45 Percent ID/g

**Q.** And the “Percent ID/g Stomach” value [2, 7]?
**A.** 0.56 Percent ID/g

**Q.** What about the “Percent ID/g Thymus” value [2, 7] of the same substance?
**A.** 0.25 Percent ID/g

**Q.** What about the “Percent ID/g Thyroid” value [2, 7] of the same substance?
**A.** 0.77 Percent ID/g

**Q.** And the “Percent ID/g Upper Intestine” value [2, 7]?
**A.** 0.98 Percent ID/g

**Q.** And the “Percent ID/g Bladder” value [2, 8]?
**A.** 2.84 Percent ID/g

**Q.** And the “Percent ID/g Blood” value [2, 8]?
**A.** 0.28 Percent ID/g

**Q.** And the “Percent ID/g Bone” value [2, 8]?
**A.** 0.11 Percent ID/g

**Q.** And the “Percent ID/g Brain” value [2, 8]?
**A.** 0.02 Percent ID/g

**Q.** And the “Percent ID/g Heart” value [2, 8]?
**A.** 0.09 Percent ID/g

**Q.** And the “Percent ID/g Kidneys” value [2, 8]?
**A.** 0.45 Percent ID/g

**Q.** And the “Percent ID/g Liver” value [2, 8]?
**A.** 2.45 Percent ID/g

**Q.** And the “Percent ID/g Lower Intestine” value [2, 8]?
**A.** 0.36 Percent ID/g

**Q.** What about the “Percent ID/g Lungs” value [2, 8] of the same substance?
**A.** 0.16 Percent ID/g

**Q.** And the “Percent ID/g Muscle” value [2, 8]?
**A.** 0.05 Percent ID/g

**Q.** What about the “Percent ID/g Spleen” value [2, 8] of the same substance?
**A.** 0.23 Percent ID/g

**Q.** What about the “Percent ID/g Stomach” value [2, 8] of the same substance?
**A.** 1.80 Percent ID/g

**Q.** And the “Percent ID/g Thymus” value [2, 8]?
**A.** 0.05 Percent ID/g

**Q.** What about the “Percent ID/g Thyroid” value [2, 8] of the same substance?
**A.** 0.15 Percent ID/g

**Q.** And the “Percent ID/g Upper Intestine” value [2, 8]?
**A.** 4.60 Percent ID/g

**Q.** What about the “regional myocardial distribution pattern (autoradiography)” value [3] of the same substance?
**A.** high uptake in the hypoxic border zone of the ischemic territory and low uptake in normoxic regions

**Q.** What about the “uptake in brain autoradiograms” value [4] of the same substance?
**A.** increased uptake in the hypoxic border zone relative to surrounding normoxic tissue

**Q.** And the “percentage of radioactivity associated with the mitochondria, Hypoxia” value [5]?
**A.** 39.2 ± 1.0% of total radioactivity within an aliquot

**Q.** And the “percentage of radioactivity associated with the mitochondria, Normoxia” value [5]?
**A.** 27.8 ± 1.2% of total radioactivity within an aliquot

**Q.** And the Hypoxia/normoxia ([5]; radioactivity associated with mitochondria)?
**A.** 1.4 ± 0.1

Source: patent US6958141B2, “Rhenium and technetium complexes containing a hypoxia-localizing moiety” (Bracco International B.V., priority 1991, dated 2005)
